# Assay results from ChEMBL document CHEMBL1201862, “PubChem BioAssay data set” (2004).
# Activity calls are given as the source filed them.
# Legend:
# [1] = HEK293 Cytotoxicity Assay Measured in Cell-Based System Using Plate Reader - 7071-01_Inhibitor_Dose_CherryPick_Activity_Set2.; format: functional
# HEK293 = test: HEK293T cell cytotoxicity, dose response, cytotoxicity control, ATP luminescence, cherry-pick samples (AID 687005); format: functional, cell-based; settings: Homo sapiens;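 further: cells exposed to compound for 48 hours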
# [2] = Luminescence Cell-Based Dose Confirmation to Identify Activators of 5'UTR Stem-Loop Driven Alpha-Synuclein mRNA Translation in H4 Neuroglioblastoma Cells. [Related pubchem assays: 1829 (Project Summary), 1814 (Primary HTS)]; format: functional
# [3] = Luminescence Cell-Based Dose Response to Identify Activators of 5'UTR Stem-Loop Driven Prion Protein mRNA Translation in H4-C Neuroglioblastoma Cells. [Related pubchem assays: 1829 (Project Summary), 1814 (Primary HTS)]; format: functional
# [4] = Luminescence Cell-Based Dose Response to Identify Activators of Luciferase Translation or Activity in H4-C Neuroglioblastoma Cells. [Related pubchem assays: 1829 (Project Summary), 1814 (Primary HTS)]; format: functional
# [5] = Luminescence Cell-Based Dose Response HTS to Identify Activators of Luciferase Translation or Activity in H4 […] Cells. [Related pubchem assays: 1829 (Project Summary), 1814 (Primary HTS)]; format: functional
# H4 = test: Luminescence Cell-Based Dose Response HTS to Identify Activators of 5'UTR Stem-Loop Driven Prion Protein mRNA Translation in H4 Neuroglioblastoma Cells. [Related pubchem assays: 1829 (Project Summary), 1814 (Primary HTS)]; format: functional; settings: Homo sapiens
# [6] = Luminescence Cell-Based Dose Confirmation HTS to Identify Activators of 5'UTR Stem-Loop Driven Alpha-Synuclein mRNA Translation in H4 Neuroglioblastoma Cells. [Related pubchem assays: 1829 (Project Summary), 1814 (Primary HTS)]; format: functional
# Paired box protein Pax-8 = Paired box protein Pax-8 (Homo sapiens, UniProt Q06710); test: inhibitors of PAX8-driven TPO luciferase reporter, dose response, RMG-I cells, cherry-pick (AID 687027); format: functional, cell-based;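 further: luciferase reporter driven by Pax8 target thyroperoxidase promoter measured by SteadyGlo luminescence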
# [7] = inhibitors of HIV Env-driven cell fusion, dose response, cherry-pick (AID 652057); format: functional, cell-based
# [8] = NIH:OVCAR-3 ovarian cancer cell cytotoxicity, dose response, PAX8 inhibitor project, plate reader, dry powder samples (AID 743044); format: functional, cell-based
# [9] = inhibitors of clade B AD8 Env fusion, dose response, cell-based, cherry-pick (AID 652062); format: functional;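 further: luciferase signal from cell-cell fusion driven by HIV-1 clade B AD8 Env; potency is for inhibitors of fusion seen as a drop in luminescence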
# [10] = cytotoxicity in OVCAR8 ovarian cancer cells, dose response, PAX8 project, cell-based, plate reader, dry powder samples (AID 743197); format: functional; settings: OVCAR-8
# [11] = molecular target: Protein-tyrosine kinase 2-beta (Homo sapiens, UniProt Q14289);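 further: potency of inhibitors of PYK2 kinase phosphorylation of poly-GT substrate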
# [12] = molecular target: T1, RNA-binding protein pos-1 (Caenorhabditis elegans, UniProt G5EF15); test: inhibitors of POS-1/mex-3 RNA binding, dose response, biochemical, fluorescence polarization (AID 1964);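 further: purified POS-1 fused to maltose binding protein made in E. coli; potency of compounds blocking POS-1 binding to fluorescent RNA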
# T1 sequence (G5EF15 whole entry): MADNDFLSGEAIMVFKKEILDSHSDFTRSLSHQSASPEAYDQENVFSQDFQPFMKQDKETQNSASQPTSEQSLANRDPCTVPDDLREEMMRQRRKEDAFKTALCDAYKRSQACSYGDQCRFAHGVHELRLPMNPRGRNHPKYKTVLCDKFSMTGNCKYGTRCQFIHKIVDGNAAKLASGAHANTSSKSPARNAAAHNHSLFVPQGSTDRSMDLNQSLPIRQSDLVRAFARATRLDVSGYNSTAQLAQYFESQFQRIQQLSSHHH
# Kallikrein-7 = Kallikrein-7 (Homo sapiens, UniProt P49862); test: Fluorescence Intensity-based biochemical primary high throughput dose response assay to identify activators of kallikrein-7 (K7) zymogen.
# [13] = molecular target: T2, Zinc finger protein mex-5 (Caenorhabditis elegans, UniProt Q9XUB2); test: MEX-5/TCR-2 RNA interaction inhibitors, dose response, biochemical, C. elegans, fluorescence polarization (AID 1960)
# T2 sequence (Q9XUB2 whole entry): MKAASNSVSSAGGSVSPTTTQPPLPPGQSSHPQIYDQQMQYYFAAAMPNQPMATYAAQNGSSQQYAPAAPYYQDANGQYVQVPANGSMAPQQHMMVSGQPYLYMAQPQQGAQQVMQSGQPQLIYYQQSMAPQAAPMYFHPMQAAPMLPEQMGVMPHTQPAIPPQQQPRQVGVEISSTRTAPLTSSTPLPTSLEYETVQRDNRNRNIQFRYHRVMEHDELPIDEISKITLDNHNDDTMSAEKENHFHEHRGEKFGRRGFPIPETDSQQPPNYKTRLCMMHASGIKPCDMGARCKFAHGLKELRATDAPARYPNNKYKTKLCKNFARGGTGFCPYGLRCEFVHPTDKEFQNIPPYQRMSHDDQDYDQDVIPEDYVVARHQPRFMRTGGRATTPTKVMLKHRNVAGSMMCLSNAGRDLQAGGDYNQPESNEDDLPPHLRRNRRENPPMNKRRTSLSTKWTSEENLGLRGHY
# [14] = inhibitors of Vif binding to APOBEC3G peptide, primary screen, biochemical, TR-FRET, GST-Vif 1-94, biotin-A3G peptide, dose response retest (AID 1117319); format: functional;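 further: TR-FRET signal of purified GST-Vif binding a biotinylated A3G peptide; inhibitors lower the FRET signal by blocking Vif and A3G binding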
# Cytochrome P450 2C9 = Cytochrome P450 2C9 (Homo sapiens, UniProt P11712)
# [15] = molecular target: Disintegrin and metalloproteinase domain-containing protein 17 (Homo sapiens, UniProt P78536); test: ADAM17 protease inhibitors, dose response, counter-screen for ADAM10 exosite inhibitor project, biochemical, quenched FRET substrate (AID 743253)
# Cytochrome P450 2D6 = Cytochrome P450 2D6 (Homo sapiens, UniProt P10635);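 further: CYP2D6 member of a cytochrome P450 panel assay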
# [16] = THP-1 cell cytotoxicity, dose response, cytotoxicity control for Vif-APOBEC3G degradation inhibitor project, THP-1 cells (AID 1117359); format: functional; settings: Human immunodeficiency virus 1, THP-1
# Sequence of Kallikrein-7 (P49862 whole entry): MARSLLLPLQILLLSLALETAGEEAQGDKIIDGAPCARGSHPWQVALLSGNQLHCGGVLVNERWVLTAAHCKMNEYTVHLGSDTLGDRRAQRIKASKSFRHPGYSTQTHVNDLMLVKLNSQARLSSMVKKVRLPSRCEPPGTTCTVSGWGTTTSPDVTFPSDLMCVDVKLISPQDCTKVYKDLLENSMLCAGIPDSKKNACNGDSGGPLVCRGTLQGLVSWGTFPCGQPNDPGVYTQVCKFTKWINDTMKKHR
# Sequence of Paired box protein Pax-8 (Q06710 whole entry, the tested form may be a part): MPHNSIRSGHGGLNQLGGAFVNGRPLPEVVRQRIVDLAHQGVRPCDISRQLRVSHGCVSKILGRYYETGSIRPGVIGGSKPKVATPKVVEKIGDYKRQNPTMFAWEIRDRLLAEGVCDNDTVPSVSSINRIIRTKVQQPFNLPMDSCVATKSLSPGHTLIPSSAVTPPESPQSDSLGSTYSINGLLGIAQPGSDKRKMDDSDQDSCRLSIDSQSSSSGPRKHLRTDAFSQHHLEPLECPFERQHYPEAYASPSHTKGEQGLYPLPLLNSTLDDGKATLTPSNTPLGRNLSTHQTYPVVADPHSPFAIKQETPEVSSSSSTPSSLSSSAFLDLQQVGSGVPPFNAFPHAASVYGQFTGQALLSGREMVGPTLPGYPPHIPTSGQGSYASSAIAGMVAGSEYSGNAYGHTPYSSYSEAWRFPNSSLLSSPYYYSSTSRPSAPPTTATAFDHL
# Sequence of Cytochrome P450 2C9 (P11712 whole entry, the tested form may be a part): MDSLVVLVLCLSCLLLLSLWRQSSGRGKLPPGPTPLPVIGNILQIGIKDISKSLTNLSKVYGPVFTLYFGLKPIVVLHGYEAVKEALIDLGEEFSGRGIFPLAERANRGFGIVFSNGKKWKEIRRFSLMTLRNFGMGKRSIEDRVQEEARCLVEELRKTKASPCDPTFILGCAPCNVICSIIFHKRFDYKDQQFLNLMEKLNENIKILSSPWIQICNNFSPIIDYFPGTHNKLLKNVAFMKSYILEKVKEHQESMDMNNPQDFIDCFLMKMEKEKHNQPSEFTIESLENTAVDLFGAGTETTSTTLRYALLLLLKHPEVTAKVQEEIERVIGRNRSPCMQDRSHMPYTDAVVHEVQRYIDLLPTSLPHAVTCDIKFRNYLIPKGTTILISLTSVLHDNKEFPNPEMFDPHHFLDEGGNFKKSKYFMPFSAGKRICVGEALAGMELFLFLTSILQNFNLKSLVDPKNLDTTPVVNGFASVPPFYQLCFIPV
# Sequence of Disintegrin and metalloproteinase domain-containing protein 17 (P78536 whole entry, the tested form may be a part): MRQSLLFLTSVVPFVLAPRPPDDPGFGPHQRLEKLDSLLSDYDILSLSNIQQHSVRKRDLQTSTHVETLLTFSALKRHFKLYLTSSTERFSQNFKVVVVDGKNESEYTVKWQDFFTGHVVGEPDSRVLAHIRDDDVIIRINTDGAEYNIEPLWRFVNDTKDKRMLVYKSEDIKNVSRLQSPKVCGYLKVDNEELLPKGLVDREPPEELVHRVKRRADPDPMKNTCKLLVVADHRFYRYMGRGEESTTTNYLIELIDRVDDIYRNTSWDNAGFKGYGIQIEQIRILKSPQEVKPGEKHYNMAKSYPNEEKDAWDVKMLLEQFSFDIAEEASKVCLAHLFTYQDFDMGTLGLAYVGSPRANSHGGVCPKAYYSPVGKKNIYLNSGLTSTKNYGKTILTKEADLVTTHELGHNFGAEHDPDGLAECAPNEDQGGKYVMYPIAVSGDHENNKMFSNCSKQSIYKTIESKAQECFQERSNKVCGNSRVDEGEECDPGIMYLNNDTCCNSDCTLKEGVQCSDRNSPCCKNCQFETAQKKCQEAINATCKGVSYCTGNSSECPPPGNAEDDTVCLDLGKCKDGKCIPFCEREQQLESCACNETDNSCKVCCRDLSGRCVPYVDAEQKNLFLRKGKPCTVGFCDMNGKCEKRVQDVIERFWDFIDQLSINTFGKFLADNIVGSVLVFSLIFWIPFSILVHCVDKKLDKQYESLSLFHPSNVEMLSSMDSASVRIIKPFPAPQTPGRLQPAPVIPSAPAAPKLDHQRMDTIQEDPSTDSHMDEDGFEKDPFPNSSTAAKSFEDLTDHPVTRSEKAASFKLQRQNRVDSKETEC
# Sequence of Protein-tyrosine kinase 2-beta (Q14289 whole entry, the tested form may be a part): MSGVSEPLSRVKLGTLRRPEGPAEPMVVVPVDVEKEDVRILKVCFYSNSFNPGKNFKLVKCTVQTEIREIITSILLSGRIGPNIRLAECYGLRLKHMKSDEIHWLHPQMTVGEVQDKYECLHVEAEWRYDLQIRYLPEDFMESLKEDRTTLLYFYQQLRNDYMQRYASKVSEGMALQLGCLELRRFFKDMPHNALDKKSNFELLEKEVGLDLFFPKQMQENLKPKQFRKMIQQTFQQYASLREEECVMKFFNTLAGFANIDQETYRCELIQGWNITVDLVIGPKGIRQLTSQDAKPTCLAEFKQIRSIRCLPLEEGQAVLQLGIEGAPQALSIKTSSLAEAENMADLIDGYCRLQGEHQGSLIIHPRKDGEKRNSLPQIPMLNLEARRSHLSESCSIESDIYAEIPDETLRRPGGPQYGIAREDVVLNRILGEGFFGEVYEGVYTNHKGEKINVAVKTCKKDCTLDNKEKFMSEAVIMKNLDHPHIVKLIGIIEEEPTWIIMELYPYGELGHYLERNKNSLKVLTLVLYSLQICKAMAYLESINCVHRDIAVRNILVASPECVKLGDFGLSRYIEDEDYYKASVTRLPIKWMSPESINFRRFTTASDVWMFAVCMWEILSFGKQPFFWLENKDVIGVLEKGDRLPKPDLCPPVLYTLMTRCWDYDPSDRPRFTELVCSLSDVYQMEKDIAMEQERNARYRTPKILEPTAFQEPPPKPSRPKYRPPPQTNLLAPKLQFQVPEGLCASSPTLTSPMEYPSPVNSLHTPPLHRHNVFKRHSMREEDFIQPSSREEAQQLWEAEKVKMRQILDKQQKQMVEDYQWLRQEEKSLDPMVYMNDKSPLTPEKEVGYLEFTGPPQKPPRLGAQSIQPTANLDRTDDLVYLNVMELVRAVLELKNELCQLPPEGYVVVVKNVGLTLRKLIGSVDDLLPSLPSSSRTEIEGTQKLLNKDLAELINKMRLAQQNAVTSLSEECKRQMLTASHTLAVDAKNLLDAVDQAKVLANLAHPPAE
# Sequence of Cytochrome P450 2D6 (P10635 whole entry): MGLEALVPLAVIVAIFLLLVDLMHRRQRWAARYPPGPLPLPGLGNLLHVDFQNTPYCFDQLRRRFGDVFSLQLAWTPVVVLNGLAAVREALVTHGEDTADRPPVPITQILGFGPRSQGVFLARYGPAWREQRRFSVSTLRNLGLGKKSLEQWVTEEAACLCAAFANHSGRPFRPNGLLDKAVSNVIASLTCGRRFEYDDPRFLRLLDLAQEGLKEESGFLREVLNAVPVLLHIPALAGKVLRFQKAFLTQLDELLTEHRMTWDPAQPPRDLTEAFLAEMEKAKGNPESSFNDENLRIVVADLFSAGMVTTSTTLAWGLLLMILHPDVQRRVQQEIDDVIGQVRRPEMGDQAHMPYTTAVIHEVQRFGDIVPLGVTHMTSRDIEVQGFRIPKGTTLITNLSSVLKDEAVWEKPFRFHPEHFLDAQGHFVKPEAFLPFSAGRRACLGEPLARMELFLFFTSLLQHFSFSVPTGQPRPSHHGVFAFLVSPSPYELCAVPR
structure (smiles),measurement,setting,value
CCCCN1CCCCC1C(=O)Nc1c(C)cccc1C (stereo not given) [BUPIVACAINE],AC50,[1],35.7 µM (active)
same,AC50,HEK293,35.7 µM (active)
CC(C)C1Oc2ccccc2C(=O)N(CC(=O)c2ccc3c(c2)OCCO3)C1=O (stereo not given),EC50,[2],0.425 µM (active)
same,EC50,[3],0.33 µM (active)
same,EC50,[4],0.447 µM (active)
same,EC50,[5],< 0.1 µM (active)
same,EC50,H4,< 0.1 µM (active)
same,EC50,[6],0.131 µM (active)
O=C(Nc1ccc(C(F)(F)F)cc1)Nc1ccc2c(c1)[C@@H]1C[C@H](CC(=O)N3CCc4ccccc4C3)O[C@H](CO)[C@@H]1O2,AC50,Paired box protein Pax-8,9.5 µM (active)
same,AC50,[7],14.2 µM (active)
same,AC50,[8],34.4 µM (active)
same,AC50,[9],18.5 µM (active)
same,AC50,[10],48.6 µM (active)
N#CCSc1nc(Nc2ccc3c(c2)OCO3)c2ccccc2n1,IC50,[11],> 69.5 µM (not active)
CCN1CCN(Cc2c(O)ccc3c2O/C(=C\c2ccc(C)cc2)C3=O)CC1,EC50,[12],38.9 µM (active)
same,EC50,Kallikrein-7,23.9 µM (inactive)
same,EC50,[13],111 µM (active)
Cc1ccc(CC(NC(=O)c2ccccc2)C(=O)NC(C)C(=O)O)cc1 (stereo not given),IC50,[14],> 100 µM (active)
COc1cc(/C=N/O)cc(Br)c1OCc1ccc(Cl)cc1,AC50,Cytochrome P450 2C9,inconclusive
same,IC50,[15],> 69.5 µM (inactive)
same,AC50,Cytochrome P450 2D6,17.8 µM (inconclusive)
O=C(C[C@H]1CC[C@@H]2[C@H](COC[C@@H](O)CN2S(=O)(=O)c2cccc(Cl)c2)O1)Nc1ccc(-c2ccccc2)cc1,AC50,Paired box protein Pax-8,8.33 µM (active)
same,AC50,[10],> 70 µM (inactive)
CCc1cc2c(O)c(-c3ccon3)c(=N)oc2cc1OC,EC50,[2],0.591 µM (active)
same,EC50,[3],> 12 µM (not active)
same,EC50,[4],1.5 µM (active)
same,EC50,[5],6.58 µM (active)
same,EC50,H4,31.8 µM (active)
same,EC50,[6],7.6 µM (active)
O=[N+]([O-])c1ccc(CNc2ccc(F)cc2)s1,CC50,[16],> 40 µM (active)
same,IC50,[14],> 100 µM (active)
CNc1cncc(-c2ccc(OC)cc2)n1,EC50,Kallikrein-7,> 69.5 µM (inactive)
C[C@H](O)[C@@H]1C(=O)N2CCc3c([nH]c4ccccc34)[C@@H]2C[C@@H]1N(C)C(=O)c1cc(Cl)cc(Cl)c1,EC50,Kallikrein-7,> 23.2 µM (inactive)
COCCNC(=O)C[C@@H]1CC[C@H]2[C@@H](COC[C@H](O)CN2Cc2cccc(-c3ccncc3)c2)O1,AC50,[1],32.6 µM (active)
same,AC50,HEK293,32.6 µM (active)
